Data published in publication PMC8249783, “A novel multikinase inhibitor SKLB‐YTH‐60 ameliorates inflammation and fibrosis in bleomycin‐induced lung fibrosis mouse models” (Cell Proliferation, 2021).

Test system: phosphorylation of FGFR1
Assay: Western blot of FGFR signalling in fibroblasts
Assay type: cell-based
Conditions: 10 μmol·L^−1
Protocol: Samples of cells and mouse lung tissues were lysed in RIPA buffer with a protease and phosphatase inhibitors (Selleckchem). The protein concentrations in the cell lysate were measured by the Lowry method. Approximately 50 μg of total protein was separated by SDS‐PAGE and then transferred to polyvinylidene fluoride (PVDF) membranes (Amersham Bioscience). After the membranes incubation with the specific primary and secondary antibodies, the reactive bands were detected with enhanced chemiluminescent substrate to horseradish peroxidase.

COc1cc(OC)c(Cl)c(-c2ccc3c(/C=C/c4ccc(N(C)C(=O)CN5CCN(C)CC5)cc4)n[nH]c3c2)c1Cl [YTH‐60, (E)‐N‐(4‐(2‐(6‐(2,6‐dichloro‐3,5‐dimethoxyphenyl)‐1H‐indazol‐3‐yl)vinyl)phenyl)‐N‐methyl‐2‐(4‐methylpiperazin‐1‐yl)acetamide]
phosphorylation of FGFR1 (in words): inhibited the phosphorylation of FGFR1
